Test results published in patent US20060069132A1, “Azolecarboxamide herbicides” (priority 2004, published 2006).

Columns and labels:
Assay in all cases: Test C postemergence herbicide test
downy bromegrass = assay type: in vivo, Bromus tectorum
Protocol: (§1) At the same time, plants selected from these crop and weed species and also winter barley (Hordeum vulgare L.), blackgrass (Alopecurus myosuroides Huds.), canarygrass (Phalaris minor Retz.), chickweed (Stellaria media (L.) Vill.), downy bromegrass (Bromus tectorum L.), green foxtail (Setaria viridis (L.) Beauv.), Italian ryegrass (Lolium multiflorum Lam.), wheat (Triticum aestivum L.), wild oat (Avenafatua L.) and windgrass (Apera spica-venti (L.) Beauv.) were treated with postemergence applications of some of the test chemicals formulated in the same manner. Plants ranged in height from 2 to 18 cm (1- to 4-leaf stage) for postemergence treatments. Plant species in the flooded paddy test consisted of rice (Oryza sativa), smallflower umbrella sedge (Cyperus difformis L.), ducksalad (Heteranthera limosa (Sw.) Willd.) and barnyardgrass (Echinochloa crus-galli (L.) Beauv.) grown to the 2-leaf stage for testing. Treated plants and controls were maintained in a greenhouse for 12 to 14 days, after which time all species were compared to controls and visually evaluated. Plant response ratings, summarized in Table C, are based on a scale of 0 to 100 where 0 is no effect and 100 is complete control. A dash (-) response means no test result.

green foxtail = assay type: in vivo, Setaria viridis
Protocol: as §1

Italian ryegrass = assay type: in vivo, Lolium multiflorum
Protocol: as §1

wheat = assay type: in vivo, Triticum aestivum
Protocol: as §1

[1] = Postemergence, 250 g ai/ha, scale 0 to 100, 0 no effect, 100 complete control
[2] = postemergence, 125 g ai/ha, scale 0 to 100
[3] = postemergence, 62 g ai/ha, scale 0 to 100
[4] = Postemergence, 500 g ai/ha, scale 0 to 100
[5] = Postemergence, 500 g ai/ha, scale 0 to 100, 0 no effect, 100 complete control

SMILES | Plant response rating, Bromegrass, Downy (downy bromegrass; [1]) | Plant response rating, Bromegrass, Downy (downy bromegrass; [2]) | Plant response rating, Bromegrass, Downy (downy bromegrass; [3]) | Plant response rating, Foxtail, Green (green foxtail; [1]) | Plant response rating, Foxtail, Green (green foxtail; [2]) | Plant response rating, Foxtail, Green (green foxtail; [3]) | Plant response rating, Ryegrass, Italian (Italian ryegrass; [1]) | Plant response rating, Ryegrass, Italian (Italian ryegrass; [2]) | Plant response rating, Ryegrass, Italian (Italian ryegrass; [3]) | Plant response rating, Wheat (wheat; [1]) | Plant response rating, Wheat (wheat; [2]) | Plant response rating, Wheat (wheat; [3]) | also measured
CCn1nc(C(C)(C)C)cc1C(=O)Nc1cc(C(=S)N(C)C)ccn1 [Compound 334] | 45 | 35 | 30 | 45 | 35 | 35 | 45 | 35 | 30 | 75 | 75 | 65 | Plant response rating, Bromegrass, Downy (downy bromegrass; postemergence, 31 g ai/ha, scale 0 to 100): 20
CCn1nc(C(C)(C)C)cc1C(=O)Nc1cccc(OC(F)F)c1 [Compound 332] | 50 | 40 | 35 | 50 | 40 | 35 | 70 | 60 | 60 | 35 | 30 | 30 | Bromegrass, Downy plant response rating (downy bromegrass; [4]): 65; Foxtail, Green plant response rating (green foxtail; [4]): 70; Ryegrass, Italian plant response rating (Italian ryegrass; [4]): 70; Wheat plant response rating (wheat; [4]): 35
C=CCNC(=O)c1cccc(NC(=O)c2nn(C(C)(C)C)nc2CC)c1 [Compound 414] | 55 | 45 | 40 | 65 | 60 | 60 | – | 55 | 50 | – | 10 | 10 | Plant response rating, Bromegrass, Downy (downy bromegrass; [5]): 60; Plant response rating, Foxtail, Green (green foxtail; [5]): 65; Plant response rating, Ryegrass, Italian (Italian ryegrass; [5]): 60; Plant response rating, Wheat (wheat; [5]): 30
